Experimental data as given in US20220098203A1 (priority 2018, published 2022).
pIC50: −log10 of the molar value. Read-outs that look alike come from different tables or passages of the source.

Columns and labels:
HCT116 MTAP-/- = assay: Inhibition of cellular proliferation (Cell Titer Glo), HCT116 MTAP-/-; format: cell-based, human; conditions: 4 days, read-out: 4 Day Relative Growth Inhibition (MTAP −/−)
Protocol: (§1) Test compound impact on cancer cell growth was assessed by treating cancer cells with compound for 4 days and then measuring proliferation using an ATP-based cell proliferation readout (Cell Titer Glo, Promega Corporation).
(§2) In a typical assay an isogenic pair of HCT116 human colon carcinoma cell lines which vary only in MTAP deletion status (HCT116 MTAP+/+ and HCT116 MTAP−/−) were plated in 96-well dishes at appropriate cell density. Following 24 hours, cells were then treated with the candidate MAT2A inhibitor. […] Compound was then transferred to a working stock plate in cell culture media by adding 5 μL of compound in DMSO to 495 μL of cell culture media. This working stock was then added to cells via a further 5-fold dilution, by adding 25 μL of working stock to 100 μL of cells in culture media. Following compound addition, cells were incubated at 37° C./5% CO2 for 4 days.
(§3) The plate was then covered with aluminum foil and shaken for 15 minutes to ensure complete mixing and full cell lysis. […] This luminescence measure was converted to a proliferation index by subtracting from each data point the ATP luminescence signal measured from a bank (no cells) well and dividing by the ATP luminescence signal measured in 0.2% DMSO control well adjusted for signal in blank well.

[1] = system: SAM in HCT116 MTAP-deleted cells; assay: Cellular assay of target engagement (SAM), LC-MS/MS; format: cell-based, human; conditions: 72 h, read-out: Cell 72 h SAM Inhibition (MTAP −/−)
Protocol: Measurement of MAT2A activity in cells was made by direct quantitation of the abundance of the product of its enzymatic activity, SAM. Cancer cells were treated with candidate MAT2A inhibitors for a suitable incubation period, and the cells were then lysed using a reagent which quenched any further enzyme activity. Soluble metabolites including SAM were collected and SAM itself was directly measured from the lysate using quantitative LC-MS/MS.
A typical assay was performed using an HCT116 human colon carcinoma cell line which was genetically engineered to delete the MTAP gene (commercially available from Horizon Discovery). […] Cells were plated in 96-well dishes at appropriate cell density. Following 24 hours, cells were then treated with the candidate MAT2A inhibitor. […] Compound was then transferred to a working stock plate in cell culture media by adding 5 μL of compound in DMSO to 495 μL of cell culture media. This working stock was then added to cells via a further 5-fold dilution, by adding 25 μL of working stock to 100 μL of cells in culture media. Following compound addition, cells were incubated at 37° C./5% CO2 for 72 hrs.
To quantitate SAM levels following compound treatment, cells were gently washed once in ammonium carbonate buffer (75 mM at pH 7.4), placed on dry ice, and lysed with metabolite extraction buffer (80% cold methanol and 20% water (v/v) with acetic acid at 1M final concentration with 200 ng/mL deuterated d3-SAM as internal control). Following centrifugation at 4° C. at 3,200 rpm for 30 minutes, the supernatant was collected and stored at −80° C. until analysis by Liquid Chromatography with tandem Mass Spectrometry (LC-MS/MS). LC-MS/MS analysis was performed using an API6500 Mass Spectrometer (Sciex, Framingham, Mass., USA) operating in positive ion spray mode and equipped with a Waters UPLC Acquity (Waters, Milford, Mass., USA) BEH Amide column.

HCT116 MTAP+/+ = assay: Inhibition of cellular proliferation (Cell Titer Glo), HCT116 MTAP+/+; format: cell-based; conditions: Homo sapiens, HCT-116, 96 h, Table 5a, 4 days, read-out: 4 Day Relative Growth Inhibition (MTAP +/+)
Protocol: as §1, §2, §3

MAT2A homodimer = molecular target: T1, MAT2A homodimer (Homo sapiens, UniProt P31153); assay: MAT2A biochemical assay (liberated phosphate, PiColorLock Gold); conditions: Table 5a; MAT2A biochemical assay; read-out: Enzyme Inhibition
T1 construct: inferred from the Ni sepharose purification and imidazole elution; made in house; host or cells: SF9 insect cells, recombinant baculovirus (Bac to Bac, pFASTBAC1)
T1 sequence (P31153 whole entry): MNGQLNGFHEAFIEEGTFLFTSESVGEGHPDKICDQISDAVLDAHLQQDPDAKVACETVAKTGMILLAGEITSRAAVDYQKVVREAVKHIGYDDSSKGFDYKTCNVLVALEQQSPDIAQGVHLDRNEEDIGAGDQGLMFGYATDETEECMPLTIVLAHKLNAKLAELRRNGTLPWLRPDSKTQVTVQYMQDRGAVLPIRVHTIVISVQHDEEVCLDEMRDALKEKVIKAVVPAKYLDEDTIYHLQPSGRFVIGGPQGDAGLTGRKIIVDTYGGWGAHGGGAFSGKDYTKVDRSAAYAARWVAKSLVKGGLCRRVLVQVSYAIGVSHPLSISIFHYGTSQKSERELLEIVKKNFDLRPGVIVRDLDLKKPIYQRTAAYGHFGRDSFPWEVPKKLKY
Outline: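 Baculovirus/Sf9-expressed, Ni-purified MAT2A homodimer preincubated with compound 60 min at 25 °C, then reacted 60 min at 25 °C with substrate mix of 500 μM ATP and 400 μM L-methionine, pH 7.0 (mix, not final levels). Phosphate released with SAM measured by PiColorLock Gold against phosphate standard curve.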

[2] = Homo sapiens, HCT-116, 96 h, Table 5a
[3] = Homo sapiens, HCT-116, Table 5a
[4] = Table 6, select pairs of compounds

SMILES	pIC50 (HCT116 MTAP-/-; [2])	pIC50 [1, 3]	pIC50 (HCT116 MTAP+/+)	pIC50 (MAT2A homodimer)	pIC50 (HCT116 MTAP-/-; [4])	pIC50 [1, 4]
CCOc1ccc2c(n1)N(c1ccc(OC)nc1)C(=O)N(c1ccc3nn(C)cc3c1)C2 [Example 142, 7-ethoxy-1-(6-methoxypyridin-3-yl)-3-(2-methyl-2H-indazol-5-yl)-3,4-dihydropyrido[2,3-d]pyrimidin-2(1H)-one]	6.00 to 7.00	> 7.00	< 6.00	> 7.00		
CCOc1ccc2c(n1)N(c1ccc(OC)cc1)C(=O)N(c1ccc3nn(C)cc3c1)C2 [Example 143, 7-ethoxy-1-(4-methoxyphenyl)-3-(2-methyl-2H-indazol-5-yl)-3,4-dihydropyrido[2,3-d]pyrimidin-2(1H)-one]	6.00 to 7.00	> 7.00	< 6.00	> 7.00		
Cn1cc2cc(N3Cc4ccc(OC5CC5)nc4N(c4ccc(OC(F)F)cc4)C3=O)ccc2n1 [Example 144, 7-cyclopropoxy-1-(4-(difluoromethoxy)phenyl)-3-(2-methyl-2H-indazol-5-yl)-3,4-dihydropyrido[2,3-d]pyrimidin-2(1H)-one]	6.00 to 7.00	> 7.00	< 6.00	> 7.00		
Cn1cc2cc(N3Cc4ccc(OCC(F)F)nc4N(c4ccc(OC(F)F)cc4)C3=O)ccc2n1 [Example 145, 7-(2,2-difluoroethoxy)-1-(4-(difluoromethoxy)phenyl)-3-(2-methyl-2H-indazol-5-yl)-3,4-dihydropyrido[2,3-d]pyrimidin-2(1H)-one]	> 7.00	> 7.00	< 6.00	> 7.00		
CCOc1ccc2c(n1)N(c1ccc(Cl)cc1)C(=O)N(c1ccc3nn(C)cc3c1)C2 [Example 146, 1-(4-chlorophenyl)-7-ethoxy-3-(2-methyl-2H-indazol-5-yl)-3,4-dihydropyrido[2,3-d]pyrimidin-2(1H)-one]	6.00 to 7.00	> 7.00	< 6.00	> 7.00		
CCOc1ccc2c(n1)N(c1ccc(OC(F)(F)F)nc1)C(=O)N(c1ccc3nn(C)cc3c1)C2 [Example 147, 7-ethoxy-3-(2-methyl-2H-indazol-5-yl)-1-(6-(trifluoromethoxy)pyridin-3-yl)-3,4-dihydropyrido[2,3-d]pyrimidin-2(1H)-one]	6.00 to 7.00	6.00 to 7.00	< 6.00	> 7.00		
CCOc1ccc2c(n1)N(c1ccc(C(F)F)nc1)C(=O)N(c1ccc3nn(C)cc3c1)C2 [Example 149, 1-(6-(difluoromethyl)pyridin-3-yl)-7-ethoxy-3-(2-methyl-2H-indazol-5-yl)-3,4-dihydropyrido[2,3-d]pyrimidin-2(1H)-one]	> 7.00	6.00 to 7.00	< 6.00	> 7.00		
CCOc1ccc2c(n1)N(c1ccc(C3CC3)nc1)C(=O)N(c1ccc3nn(C)cc3c1)C2 [Example 152, 1-(6-cyclopropylpyridin-3-yl)-7-ethoxy-3-(2-methyl-2H-indazol-5-yl)-3,4-dihydropyrido[2,3-d]pyrimidin-2(1H)-one]	6.00 to 7.00	> 7.00	< 6.00	> 7.00		
CCOc1ccc2c(n1)N(c1ccc(-c3nnc[nH]3)cc1)C(=O)N(c1ccc3nn(C)cc3c1)C2 [Example 153, 1-(4-(4H-1,2,4-triazol-3-yl)phenyl)-7-ethoxy-3-(2-methyl-2H-indazol-5-yl)-3,4-dihydropyrido[2,3-d]pyrimidin-2(1H)-one]	> 7.00	> 7.00	< 6.00	> 7.00		
CCOc1ccc2c(n1)N(c1ccc(-c3nnc[nH]3)cc1)C(=O)N(c1ccc3ncn(C)c3c1)C2 [Example 154, 1-(4-(4H-1,2,4-triazol-3-yl)phenyl)-7-ethoxy-3-(1-methyl-1H-benzo[d]imidazol-6-yl)-3,4-dihydropyrido[2,3-d]pyrimidin-2(1H)-one]	6.00 to 7.00	> 7.00	6.00 to 7.00	> 7.00		
CCOc1ccc2c(n1)N(c1ccc(-c3nnc[nH]3)cc1)C(=O)N(c1ccc(OC)cc1)C2 [Example 155, 1-(4-(4H-1,2,4-triazol-3-yl)phenyl)-7-ethoxy-3-(4-methoxyphenyl)-3,4-dihydropyrido[2,3-d]pyrimidin-2(1H)-one]	6.00 to 7.00	> 7.00	6.00 to 7.00	> 7.00		
COc1ccc(N2C(=O)N(c3ccc4nn(C)cc4c3)Cc3ccc(SCC(F)(F)F)nc32)cc1 [Example 161, 1-(4-methoxyphenyl)-3-(2-methyl-2H-indazol-5-yl)-7-((2,2,2-trifluoroethyl)thio)-3,4-dihydropyrido[2,3-d]pyrimidin-2(1H)-one]	6.00 to 7.00	6.00 to 7.00	< 6.00	> 7.00	6.00 to 7.00	6.00 to 7.00
COc1ccc(N2C(=O)N(c3ccc4nn(C)cc4c3)Cc3ccc(NC4CCC4)nc32)cc1 [Example 162, 7-(cyclobutylamino)-1-(4-methoxyphenyl)-3-(2-methyl-2H-indazol-5-yl)-3,4-dihydropyrido[2,3-d]pyrimidin-2(1H)-one]	6.00 to 7.00	6.00 to 7.00	< 6.00	> 7.00		
[2H]C([2H])([2H])Oc1ccc(N2C(=O)N(c3ccc4nn(C)cc4c3)Cc3ccc(OCCF)nc32)cc1 [Example 163, 7-(2-fluoroethoxy)-1-(4-methoxy-d3-phenyl)-3-(2-methyl-2H-indazol-5-yl)-3,4-dihydropyrido[2,3-d]pyrimidin-2(1H)-one]	6.00 to 7.00	6.00 to 7.00	< 6.00	> 7.00		
[2H]C([2H])([2H])Oc1ccc(N2C(=O)N(c3ccc4nn(C)cc4c3)Cc3ccc(OCC4CC4)nc32)cc1 [Example 164, 7-(cyclopropylmethoxy)-1-(4-methoxy-d3-phenyl)-3-(2-methyl-2H-indazol-5-yl)-3,4-dihydropyrido[2,3-d]pyrimidin-2(1H)-one]	6.00 to 7.00	6.00 to 7.00	< 6.00	> 7.00		
[2H]C([2H])([2H])Oc1ccc(N2C(=O)N(c3ccc4nn(C)cc4c3)Cc3ccc(OCCC)nc32)cc1 [Example 165, 1-(4-methoxy-d3-phenyl)-3-(2-methyl-2H-indazol-5-yl)-7-propoxy-3,4-dihydropyrido[2,3-d]pyrimidin-2(1H)-one]	6.00 to 7.00	6.00 to 7.00	< 6.00	> 7.00		
[2H]C([2H])([2H])Oc1ccc(N2C(=O)N(c3ccc4nn(C)cc4c3)Cc3ccc(OC(C)C)nc32)cc1 [Example 167, 7-isopropoxy-1-(4-methoxy-d3-phenyl)-3-(2-methyl-2H-indazol-5-yl)-3,4-dihydropyrido[2,3-d]pyrimidin-2(1H)-one]	> 7.00	> 7.00	< 6.00	> 7.00		
[2H]C([2H])([2H])Oc1ccc(N2C(=O)N(c3ccc4nn(C)cc4c3)Cc3ccc(OC(C)C(F)F)nc32)cc1 (centres unmarked) [Example 168, 7-((1,1-difluoropropan-2-yl)oxy)-1-(4-methoxy-d3-phenyl)-3-(2-methyl-2H-indazol-5-yl)-3,4-dihydropyrido[2,3-d]pyrimidin-2(1H)-one]	> 7.00	> 7.00	< 6.00	> 7.00		
